# Source: patent publication US20050208496A1, “Methods of testing for bronchial asthma or chronic obstructive pulmonary disease” (Genox Research, Inc., priority 2002, published 2005)
# System: respiratory epithelial cells
substance,measurement,setting,value
"IL-13: human IL-13 (Peprotech, Inc.) added to the medium at 50 ng/mL to stimulate respiratory epithelial cells",TGM2 (38404_at) expression fold change upon IL-13 stimulation,"lot 1, Day 7, AI method",2.8 fold
same,"TSPAN-3 (38612_at) expression, fold change upon IL-13 stimulation","lot 1, Day 7, AI method",2.7 fold
same,TXNRD1 (39425_at) expression fold change upon IL-13 stimulation,"lot 1, Day 7, AI method",2.5 fold
same,UBE2L6 (40505_at) expression fold change upon IL-13 stimulation,"lot 1, Day 7, AI method",5.1 fold
same,"UFD1L (811_at) expression, fold change upon IL-13 stimulation","lot 1, Day 7, AI method",5.1 fold
same,W06879 (57696_at) expression fold change,"lot 1, Day 7, AI method",2.1 fold
same,ZNF263 (33288_i_at) expression fold change,"lot 1, Day 7, AI method",2.6 fold
same,"diubiquitin (39959_at) expression, fold change upon IL-13 stimulation","lot 1, Day 7, AI method",4.3 fold
same,AA053401 (56234_r_at) expression change,"lot 1, Day 7, IMM",−5.7
same,AA059458 (65626_at) expression change,"lot 1, Day 7, IMM",−3.1
same,AA456099 (59567_at) expression change,"lot 1, Day 7, IMM",−2.3
same,AF052107 38262_at expression change,"lot 1, Day 7, IMM",−4.5
same,AI050855 (64285_at) expression change,"lot 1, Day 7, IMM",−3.7
same,AI432375 (49819_at) expression change,"lot 1, Day 7, IMM",−6.3
same,AI770116 (70124_at) expression change,"lot 1, Day 7, IMM",−2.1
same,AI798733 (64163_at) expression change,"lot 1, Day 7, IMM",−2.3
same,AI829641 (84270_at) expression change,"lot 1, Day 7, IMM",11.7
same,AI948584 48086_at expression change,"lot 1, Day 7, IMM",−6.2
same,AQP5 32909_at expression change,"lot 1, Day 7, IMM",−2.5
same,ARHGEF4 36524_at expression change,"lot 1, Day 7, IMM",−2.2
same,BARX2 35425_at expression change,"lot 1, Day 7, IMM",−2.7
same,CBLB 514_at expression change,"lot 1, Day 7, IMM",−2.4
same,CBLB 35632_at expression change,"lot 1, Day 7, IMM",−2
same,CRABP-II 1057_at expression change,"lot 1, Day 7, IMM",−2.7
same,DKFZp434K1210 44682_at expression change,"lot 1, Day 7, IMM",−2.1
same,DSC3 (79615_at) expression change,"lot 1, Day 7, IMM",−4
same,"DSC3a, b 47119_at expression change","lot 1, Day 7, IMM",−3.4
same,"DSC3a, b 79615_at expression change","lot 1, Day 7, IMM",−4
same,EIF4EBP1 (54152_at) expression change,"lot 1, Day 7, IMM",−7.3
same,FLJ10718 52072_at expression change,"lot 1, Day 7, IMM",−8
same,FLJ20373 54030_at expression change,"lot 1, Day 7, IMM",−2.1
same,FLJ23516 47534_at expression change,"lot 1, Day 7, IMM",−5.4
same,GJA1 32531_at expression change,"lot 1, Day 7, IMM",−5.5
same,HEY1 44783_s_at expression change,"lot 1, Day 7, IMM",−3.4
same,HIN-1 (46200_at) expression change,"lot 1, Day 7, IMM",−4
same,ID1 36619_r_at expression change,"lot 1, Day 7, IMM",−3.9
same,IL20RA 42969_at expression change,"lot 1, Day 7, IMM",−2.9
same,IVL 36355_at expression change,"lot 1, Day 7, IMM",−4.5
same,K1IAA1102 (64345_s_at) expression change,"lot 1, Day 7, IMM",−5.6
same,KCNMA1 (53796_at) expression change,"lot 1, Day 7, IMM",−3
same,KIAA0878 (48793_at) expression change,"lot 1, Day 7, IMM",−2.4
same,KLF7 34216_at expression change,"lot 1, Day 7, IMM",−6.3
same,KLF7 (42769_at) expression change,"lot 1, Day 7, IMM",−3.7
same,KRT6B (62998_at) expression change,"lot 1, Day 7, IMM",−2.5
same,KRT15 37582_at expression change,"lot 1, Day 7, IMM",−2
same,LOC51297 (49616_at) expression change,"lot 1, Day 7, IMM",−3.9
same,LOC51297 (55440_at) expression change,"lot 1, Day 7, IMM",−3.7
same,LOC51297 (55442_g_at) expression change,"lot 1, Day 7, IMM",−12.8
same,LOC129642 (42065_at) expression change,"lot 1, Day 7, IMM",−4.3
same,LOC129642 (58288_at) expression change,"lot 1, Day 7, IMM",−3.9
same,MGC14128 55924_at expression change,"lot 1, Day 7, IMM",−2.7
same,MGC14128 (51669_r_at) expression change,"lot 1, Day 7, IMM",−2.1
same,MGC16207 (65876_at) expression change,"lot 1, Day 7, IMM",−2.3
same,N71183 52473_at expression change,"lot 1, Day 7, IMM",−2.1
same,PR01489 57777_at expression change,"lot 1, Day 7, IMM",−10.9
same,RAC2 32737_at expression change,"lot 1, Day 7, IMM",−3.2
same,SEMA4B (46709_at) expression change,"lot 1, Day 7, IMM",−2.2
same,SERPINA3 (75248_at) expression change,"lot 1, Day 7, IMM",−16.3
same,SPRR1B 37160_at expression change,"lot 1, Day 7, IMM",−2.4
same,T52027 (63150_at) expression change,"lot 1, Day 7, IMM",2.5
same,TCF8 33439_at expression change,"lot 1, Day 7, IMM",−2.4
same,TGFBI (68339_at) expression change,"lot 1, Day 7, IMM",−3.2
same,TNNT1 36113_s_at expression change,"lot 1, Day 7, IMM",−4.9
same,TNRC3 41246_at expression change,"lot 1, Day 7, IMM",−2.4
same,TPM1 36790_at expression change,"lot 1, Day 7, IMM",−5.5
same,TPM1 36791_g_at expression change,"lot 1, Day 7, IMM",−7.5
same,TPM1 36792_at expression change,"lot 1, Day 7, IMM",−5.7
same,UGB 39220_at expression change,"lot 1, Day 7, IMM",−8.2
same,VIM 34091_s_at expression change,"lot 1, Day 7, IMM",−6.6
same,W55956 46700_at expression change,"lot 1, Day 7, IMM",−2.4
same,W72331 49486 at expression change,"lot 1, Day 7, IMM",−4.8
same,"ADAM8 (40712_at) expression, fold change upon IL-13 stimulation","lot 1, Day 7, IMM method",2.8 fold
same,"ADAM28 (35479_at) expression, fold change upon IL-13 stimulation","lot 1, Day 7, IMM method",6.4 fold
same,AI659927 (54033_at) expression fold change,"lot 1, Day 7, IMM method",11 fold
same,AI718385 (53061_at) expression fold change,"lot 1, Day 7, IMM method",3.2 fold
same,AI809925 (53010_at) expression fold change,"lot 1, Day 7, IMM method",2.8 fold
same,AI989346 (52327_s_at) expression fold change,"lot 1, Day 7, IMM method",2.1 fold
same,"AKAP2 (35985_at) expression, fold change upon IL-13 stimulation","lot 1, Day 7, IMM method",2.2 fold
same,"ALOX15 (34636_at) expression, fold change upon IL-13 stimulation","lot 1, Day 7, IMM method",118.8 fold
same,AW019985 (48826_s_at) expression fold change,"lot 1, Day 7, IMM method",10.8 fold
same,BRCA1 (626_s_at) expression fold change,"lot 1, Day 7, IMM method",2.4 fold
same,"BST2 (39061_at) expression, fold change upon IL-13 stimulation","lot 1, Day 7, IMM method",5.4 fold
same,C21orf11 (58957_at) expression fold change,"lot 1, Day 7, IMM method",6 fold
same,CCND3 (1794_at) expression fold change upon IL-13 stimulation,"lot 1, Day 7, IMM method",2.3 fold
same,CDH6 (1620_at) expression fold change upon IL-13 stimulation,"lot 1, Day 7, IMM method",4.2 fold
same,CDH6 (57421_at) expression fold change,"lot 1, Day 7, IMM method",4.5 fold
same,CDH26 (46916_at) expression fold change,"lot 1, Day 7, IMM method",9.3 fold
same,"CH25H (32363_at) expression, fold change upon IL-13 stimulation","lot 1, Day 7, IMM method",11.4 fold
same,"CLDN4 (35276_at) expression, fold change upon IL-13 stimulation","lot 1, Day 7, IMM method",2.1 fold
same,"CLDN5 (38995_at) expression, fold change upon IL-13 stimulation","lot 1, Day 7, IMM method",3.9 fold
same,"CTSC (133_at) expression, fold change upon IL-13 stimulation","lot 1, Day 7, IMM method",5.6 fold
same,CXCL16 (44095_at) expression fold change,"lot 1, Day 7, IMM method",2.6 fold
same,"DD96 (31610_at) expression, fold change upon IL-13 stimulation","lot 1, Day 7, IMM method",9.5 fold
same,"DKFZP564O0823 (41402_at) expression, fold change upon IL-13 stimulation","lot 1, Day 7, IMM method",9.6 fold
same,DKFZP566J091 (57197_at) expression fold change,"lot 1, Day 7, IMM method",4.2 fold
same,"DKFZp564N1116 (37784_at) expression, fold change upon IL-13 stimulation","lot 1, Day 7, IMM method",6 fold
same,DPP4 (34823_at) expression fold change upon IL-13 stimulation,"lot 1, Day 7, IMM method",3.9 fold
same,DPYD (38220_at) expression fold change upon IL-13 stimulation,"lot 1, Day 7, IMM method",6.9 fold
same,EMILIN-2 (51628_at) expression fold change,"lot 1, Day 7, IMM method",5 fold
same,FETUB (32620_at) expression fold change,"lot 1, Day 7, IMM method",7.4 fold
same,FETUB (33101_g_at) expression fold change,"lot 1, Day 7, IMM method",7.7 fold
same,FLJ10261 (43366_at) expression fold change,"lot 1, Day 7, IMM method",8.4 fold
same,FLJ22693 (53777_at) expression fold change,"lot 1, Day 7, IMM method",2.2 fold
same,GADD45G (39154_at) expression fold change upon IL-13 stimulation,"lot 1, Day 7, IMM method",3.1 fold
same,HAS3 (54604_at) expression fold change,"lot 1, Day 7, IMM method",2.2 fold
same,"HLA-F (37420_i_at) expression, fold change upon IL-13 stimulation","lot 1, Day 7, IMM method",2.4 fold
